Data from patent US6087493A, “Porphyrin compounds as telomerase inhibitors” (Regents of the University of Texas System, priority 1998, dated 2000).
Where two headings read alike, the source gives them in different places.

Columns and labels:
human telomerase = human telomerase (Homo sapiens, UniProt O14746); experiment: Telomerase inhibition, primer extension assay in HeLa cell extract; assay type: biochemical
MCF-7 = experiment: Cytotoxicity (MTT) MCF-7; assay type: cell-based, human; details: mcf-7 cells
Procedure: (§1) The cells were cultured in the presence of the porphyrins incubator for 4-7 days and then treated with 3-(4,5-dimethylthiazol-2-yl)-2,5-diphenyl-tetrazolium bromide (MTT). Formazan concentration was quantitated by absorbance at 570 nm.

MDA-231 = experiment: Cytotoxicity (MTT) MDA-231; assay type: cell-based, human; details: mda-231 cells
Procedure: as §1

BT-20 = experiment: Cytotoxicity (MTT) BT-20; assay type: cell-based, human; details: bt-20 cells
Procedure: as §1

PC3 = experiment: Cytotoxicity (MTT) PC3; assay type: cell-based, human; details: pc3 cells
Procedure: as §1

DU145 = experiment: Cytotoxicity (MTT) DU145; assay type: cell-based, human; details: du145 cells
Procedure: as §1

LNCap = experiment: Cytotoxicity (MTT) LNCap; assay type: cell-based, human; details: lncap cells
Procedure: as §1

Daudi = experiment: cells; assay type: cell-based, human; details: daudi cells
Procedure: as §1

Raji = experiment: Cytotoxicity (MTT) Raji; assay type: cell-based, human; details: raji cells
Procedure: as §1

NHLF = experiment: Cytotoxicity (MTT) NHLF normal lung fibroblasts; assay type: cell-based; details: human, nhlf cells
Procedure: as §1
All porphyrins were obtained from Midcentury, Posen, Ill. The experimental work with porphyrins was performed under minimum exposure to light. All human tumor cell lines and normal human breast cells Hs578Bst were purchased from the American Type Culture Collection. Normal human lung fibroblasts NHLF were obtained from Clonetics Corporation. The cell lines were grown according to the suppliers' instructions.

HS578t = assay type: cell-based, human; details: hs578t cells
Procedure: (§2) Cytotoxicity of the compounds to human breast cancer cells in vitro was assessed using a panel of cell lines representing estrogen receptor-positive (BT20, MCF-7m), and a pair of estrogen receptor-negative, transformed breast (11S578t) and normal breast (HS578Bst) cells.
(§3) Thy: tritiated […] assay (n = 3 ± SEM)

MCF-7M [1] = assay type: cell-based, human; details: mcf-7m cells
Procedure: as §2, §3

MCF-7M [2] = assay type: cell-based, human; details: mcf-7m cells; remark: listed apart in the source
Procedure: as §2

HeLa = experiment: cells; assay type: cell-based, human; details: hela cells
[3] = test system: MCF7 human breast carcinoma cells (telomerase activity); experiment: Telomerase activity in intact MCF7 cells cultured with porphyrin; assay type: cell-based
Procedure: To determine the long-term effects of TMPyP4 on whole cells, MCF7 breast carcinoma cells were cultured in the continuous presence of 1, 10, and 100 μM TMPyP4. The porphyrin solution was freshly added to the medium from the concentrated stock at each passage of the cells (every 3-4 days). On days 4, 8, and 15, the cells were lysed and the telomerase activity was measured in the extracts.
Breast cancer cells MCF-7m, BT20, HS578t and normal HS578Bst cells were grown in culture in T75 flasks (10^6 cells/flask). […] The cells were harvested and freeze-thawed and the extracts used to measure telomerase activity using the Dynabeads method.

[4] = test system: telomere length in MCF7 cells; experiment: Telomere length analysis in MCF7 cells; assay type: cell-based, human
Procedure: DNA was extracted from a minimum of 5×10^6 cells by SDS, proteinase K treatment, then purified and quantitated as previously described (Strahl and Blackburn, 1991). Approximately 1 μg of total DNA was digested with Mse I; the digested DNA was size fractionated by agarose gel electrophoresis and Southern blotted. The blots were hybridized with a ^32 P-labeled 0.5 kb PCR™ DNA fragments composed of the telomere repeat d(TTAGGG), which served as a probe for the telomeres. The hybridized probe was detected by autoradiography and each lane on the film was analyzed by phosphoimage analysis (Molecular Dynamics).
Telomeres shorten at an average rate of 65-100 base pairs per cell division (Counter et al., 1992). To observe a significant effect of an agent on telomere length, e.g., shortening the telomeres by >1 kilobase in MCF7 cells (5.7 kbases), a minimum of […] population doubling times will be required.

sea urchin embryos = details: in vivo
Procedure: Lytechinus pictus sea urchins were purchased from Marinus Inc. (Long Beach, Calif.) and maintained at 15° C. in refrigerated aquaria containing Instant Ocean synthetic sea water, following a described procedure [Vafa, 1996 #300]. For polyspermic fertilization, 0.01 vol freshly prepared stock sperm suspension (25 ml ASW containing 2 ml undiluted semen) was added to the eggs suspended for 10 min at 1% concentration in ASW adjusted to pH 9.0 with NH4 OH and stirred at 60 rpm with motor-driven Teflon paddles. Ten min after insemination, the fertilized eggs were allowed to settle, and the supernatant ASW containing sperm was aspirated and replaced with fresh ASW. The embryos were cultured at 18° C. Twenty min after fertilization TMPyP4 or TMPyP4.Pt^II (100 μM final concentration) was added from a concentrated stock in DMSO to 1% embryo suspensions. Equivalent amounts of DMSO (final 0.1%) were added to control egg suspensions. At measured times after insemination, the embryos were pelleted by centrifugation and resuspended in Carnoy's fixative (ethanol:acetic acid, 3:1) for at least 1 hr. After fixation the embryos were pelleted and resuspended successively in: (1) ethanol:acetic acid, 1:1 for 5-15 min: (2) 45% acetic acid for 5-15 min; (3) room temperature 1 N HCl for 1-2 min: (4) 60° C. 1 N HCl for 7-8 min; (5) room temperature 1 N HCl for 1-2 min; (6) Schiffs reagent for 90-120 min; and (7) 45% acetic acid before affixing the embryos to microscope slides. Embryo samples were placed on microscope slides, covered with coverslips, and frozen on a bed of dry ice. After at least 30 min, the coverslips were popped off using a razor blade and the slides were immediately plunged into Coplin jars containing 95% ethanol for 5-10 min. The slides were then transferred to Coplin jars containing 100% ethanol for 3-5 min. After removing the slides and allowing them to air dry, the embryos were mounted with one drop Permount (Fisher) under a coverglass.
The inventors examined whether treatment of the embryos with G-quadroplex interactive agents can cause observable chromosomal abnormalities. A time course of the embryo development was followed in the presence of 10 μM and 100 μM concentrations of TMPyP4 or TMPyP4.Pt^II.

Chain of human telomerase (O14746 whole entry): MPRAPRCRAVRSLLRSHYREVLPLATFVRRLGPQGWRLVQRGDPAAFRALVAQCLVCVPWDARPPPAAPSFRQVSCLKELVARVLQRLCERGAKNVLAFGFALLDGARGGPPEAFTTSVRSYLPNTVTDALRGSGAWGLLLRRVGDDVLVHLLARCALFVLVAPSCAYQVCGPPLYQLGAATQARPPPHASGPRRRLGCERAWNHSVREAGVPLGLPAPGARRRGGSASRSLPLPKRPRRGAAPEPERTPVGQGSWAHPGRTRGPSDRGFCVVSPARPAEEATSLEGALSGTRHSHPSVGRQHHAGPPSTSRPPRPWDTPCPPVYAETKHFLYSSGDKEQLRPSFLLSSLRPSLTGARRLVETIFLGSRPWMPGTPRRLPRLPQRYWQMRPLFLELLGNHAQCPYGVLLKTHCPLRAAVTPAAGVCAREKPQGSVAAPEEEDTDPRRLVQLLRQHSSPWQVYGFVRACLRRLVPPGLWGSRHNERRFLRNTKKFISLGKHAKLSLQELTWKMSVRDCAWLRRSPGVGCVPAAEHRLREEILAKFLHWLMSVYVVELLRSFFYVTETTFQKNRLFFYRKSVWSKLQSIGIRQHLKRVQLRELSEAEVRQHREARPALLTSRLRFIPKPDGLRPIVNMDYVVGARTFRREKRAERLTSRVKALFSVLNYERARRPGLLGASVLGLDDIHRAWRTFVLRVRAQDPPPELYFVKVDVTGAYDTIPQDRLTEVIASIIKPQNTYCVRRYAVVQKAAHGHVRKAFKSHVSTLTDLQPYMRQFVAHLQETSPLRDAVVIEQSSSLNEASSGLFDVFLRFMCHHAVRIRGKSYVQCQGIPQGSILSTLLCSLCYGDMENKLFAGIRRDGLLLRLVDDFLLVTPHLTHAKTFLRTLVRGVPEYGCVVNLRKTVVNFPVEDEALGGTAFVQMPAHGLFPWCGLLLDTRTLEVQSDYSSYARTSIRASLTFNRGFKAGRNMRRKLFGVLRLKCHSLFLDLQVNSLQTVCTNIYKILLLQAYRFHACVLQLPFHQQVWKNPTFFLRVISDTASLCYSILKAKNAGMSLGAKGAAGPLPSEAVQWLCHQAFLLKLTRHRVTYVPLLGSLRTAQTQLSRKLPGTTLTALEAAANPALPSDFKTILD

C[n+]1ccc(-c2c3nc(c(-c4cc[n+](C)cc4)c4ccc([n-]4)c(-c4cc[n+](C)cc4)c4nc(c(-c5cc[n+](C)cc5)c5ccc2[n-]5)C=C4)C=C3)cc1.[Cl-].[Cl-].[Cl-].[Cl-].[Pt+2] [TMPyP4 PtII, Platinum(II)tetra(N-methyl-4-pyridyl)porphyrin chloride]
% Inhibition of telomerase (human telomerase; 25 µM): 69%
IC50 (human telomerase; read-out: Telomerase Inhibition): 15 µM
IC50 (MCF-7): > 100 µM
IC50 (MDA-231): > 100 µM
IC50 (BT-20): 262 µM
IC50 (PC3): > 200 µM
IC50 (DU145): 1360 µM
IC50 (LNCap): 42.2 µM
IC50 (Daudi): 104 µM
IC50 (Raji): 64.6 µM
CC50 (NHLF): 11.6 µM
IC50 (HS578t): 214 ± 49 µM
IC50 (MCF-7M [1]): 434 ± 386 µM
IC50 (MCF-7M [2]): 74.8 ± 31.9 µM
IC50 (HeLa): 136 ± 34.8 µM
telomerase activity in intact MCF7 cells [3]: less potent inhibitor than TMPyP4
effect on telomere shortening [4]: No detectable effects on telomere shortening
cell number and morphology of embryos (sea urchin embryos): fewer cells, many very misshapen and variable in size relative to the controls
condensed chromosome length / chromosomal effects (sea urchin embryos): Qualitatively similar results
differences from controls in embryos (sea urchin embryos): no definitive differences were seen
first signs of ciliary motility (sea urchin embryos): 9 h
toxicity to embryos (sea urchin embryos): generally non-toxic to the embryos
